Measurements: US20140193910A1, “METHODS FOR PRODUCING PANCREATIC PRECURSOR CELLS AND USES THEREOF” (priority 2011, published 2014)

What was measured:
Type in all cases: cell-based
[1] = system: human pancreatic stem cells; assay: Cell clones from second digestion of pancreas tissue, DMEM-10% DFBS + GrNP supplementation; conditions: for #clones after 1 passage, Method 1 / #clones after 1 passage, Method 2: 1 mM supplement, second digestion; for Enhancement of clonal cell proliferation: Method 1 and Method 2
Experimental: (§1) More specifically, after mincing of intact pancreatic tissue (harvested by the National Disease Research Interchange from donors within 4 hours of death), the pancreatic tissue was digested with liberase H (Roche). Two successive digestions of 20 and 30 minutes were performed at 37° C. in serum-free Dulbecco's modified Eagle's medium (DMEM) containing 1 mg/mL LIBERASE H. The cells and cell clusters released after each of these digestions were cultured.
In one embodiment of the methods described herein, termed herein as “Method 1,” twice digested pancreas digestion products can be cultured in DMEM supplemented with 10% dialyzed fetal bovine serum (DFBS).
(§2) In another embodiment of the methods described herein, termed herein as “Method 2,” the same two successive digestion procedure can be used, but the final tissue fragments remaining after the second digestion can also be cultured independently. For this embodiment of the methods, CMRL-1066 medium can be used as a second base culture medium in parallel with DMEM for all cultured pancreatic cell and tissue preparations. In one such example of Method 2, CMRL-1066 medium was supplemented with 10% DFBS and 2 mM L-glutamine and subdivided for the same GrNP supplementations as indicated for DMEM-10% DFBS medium in Method 1.

[2] = system: human pancreatic stem cells; assay: Population doubling analysis of pooled polyclonal strains (Method 2, CMRL-1066)
Experimental: Growth properties of human pancreatic stem cell strains. Four weeks after replating, clones were picked and expanded. Cells left after clonal isolations from the CMRL-1066 conditions were pooled and grown. They were trypsinized and counted on a regular basis, and population doublings were calculated accordingly. The number of clones detected for each condition is represented on the top two histograms. The bottom histogram represents the percentage of harvested clones that continued their expansion after isolation.
After isolating clonal cell colonies produced by the embodiment of the methods described herein termed Method 2 (Table 2) for expansion, the remaining unselected cell clones were pooled and expanded as well (i.e., polyclonal strains). Population doubling analyses were performed based on the passage of the expansion pool cultures.

[3] = system: human pancreatic stem cells; assay: Cell clones from twice-digested fragments of pancreas tissue, CMRL-1066-10% DFBS + GrNP supplementation; conditions: for Clone expansion rate (percent of isolated clones that could be expanded to full cultures) / #clones after 1 passage, Method 2: 1 mM supplement; for Clone expansion rate (percent of isolated clones that could be expanded to full cultures) / #clones after 1 passage, Method 2 / Increase in number of clones (primary cell colonies) over control: CMRL-1066-10% DFBS; for #clones after 1 passage, Method 2: twice-digested tissue fragments; for Increase in number of clones (primary cell colonies) over control: Method 2; for Increase in proportion of clones that could be further expanded to full cultures: CMRL-1066 medium, tissue fragments, versus control
Experimental: as §1, §2
Accordingly, in some embodiments of the methods described herein, the culture medium comprise Xn, Xs, or a combination thereof.

SMILES | #clones after 1 passage, Method 1 [1] | #clones after 1 passage, Method 2 [1] | Enhancement of clonal cell proliferation [1] | Cell expansion corresponding to the population doublings ([2]; polyclonal strains) | Population doublings of polyclonal strains ([2]; supplemented medium, expansion pool cultures) | Clone expansion rate (percent of isolated clones that could be expanded to full cultures) [3] | #clones after 1 passage, Method 2 [3] | Increase in number of clones (primary cell colonies) over control [3] | Increase in proportion of clones that could be further expanded to full cultures [3]
O=c1[nH]cnc2nc[nH]c12 [Hx, hypoxanthine] | 22 | 13 | more effective in enhancing clonal cell proliferation than Xn | – | – | – | – | – | –
O=c1[nH]c(=O)c2[nH]cnc2[nH]1 [Xn, xanthine] | 3 | 5 | not statistically different than control | ~1e+06 fold | 20 population doublings | 13% | 54 | approximately 50% | 3.4 fold
O=c1[nH]c(=O)c2ncn([C@@H]3O[C@H](CO)[C@@H](O)[C@H]3O)c2[nH]1 [Xs, xanthosine] | 13 | 12 | more effective in enhancing clonal cell proliferation than Xn | – | – | 10% | 59 | approximately 50% | 2.6 fold
